Laboratory results: patent publication US5399371A, “Low calorie substitute for an edible oil” (Henkel Corporation, priority 1993, dated 1995)

Tests used:
[1] = test system: porcine pancreatic lipase; experiment: Lipase assay: resistance to hydrolysis by porcine pancreatic lipase; type: in vitro ADME; settings: pig, pH 8
Procedure: The polyglycerols in Examples III, IV, V, VI, VII, X, XI were subjected to digestion by porcine pancreatic lipase to test for resistance to hydrolysis. This test is an indicator of resistance to digestion within a mammalian digestive system.
Lipase Assay--The following materials and procedure were employed:
0.05M Tris-HCl buffered at pH=8.0 at 37° C.
60 mg porcine pancreatic lipase (Sigma Cat. No. L3126) to 5.0 ml of the above L-histidine solution.
Olive oil is used as a standard in these assays. The olive oil is from Sigma, cataloque number 01500.
1. Weigh 0.2000 grams of standard or sample into each of three 125 ml Erlenmeyer flasks.
2. To each flask add 8.0 ml of Salts solution, and 1.0 ml of the 0.05M Tris-HCl solution. Stopper each flask and place them in a shaker water bath equilibrated to 37° C. Commence agitation at 250 rpm. A New Brunswick shaker water bath was used throughout this study.
3. After the samples have equilibrated to temperature, 15-20 minutes, add 1.0 ml of enzyme to each of two flasks and 1.0 ml of histidine solution to the third flask as a blank. Stagger the addition to each flask by at least 30 seconds. The third flask in each set is the sample blank, which accounts for any free acids in the sample. Reactions should run both for 1 hour and 18 hours.
4. When reaction time has expired, add 50 ml of isopropanol to each flask. Prior to titration with 0.05-0.10N KOH in methanol, add a few drops of 1% phenolphthalein in ethanol to each flask. The exact concentration of .the potassium hydroxide solution should be standardized using KHP, potassium hydrogen phthalate. Titrate each flask to the pink endpoint and record the amount of base required to neutralize the sample. If solubility is a problem, warm sample slightly in a water bath prior to titration.
5. For olive oil, the % hydrolysis for each sample will be the mmoles KOH divided by the mmoles fatty acids available×(times) 100. An average molecular weight for olive oil of 880 g/mole can be used The corrected % hydrolysis is the % hydrolysis for the lipase-treated sample minus the % hydrolysis for the blank. For more heterogeneous samples (complex esters), the % hydrolysis can be calculated as the (AV/SAP Value)×100. The AV for each sample is (mmole KOH sample--mmole KOH blank) (56 mg KOH/mmole)/sample weight in grams. The saponification value can be determined using a method such as A.O.C.S. Official Method Cd 3-25. It is defined as the mg KOH required to saponify a gram of sample. The % hydrolysis can then be determined by taking a ratio of the measured AV after lipase treatment/SAP VALUE 100.

[2] = rat, in vivo
[3] = in vivo; cited from earlier work

Substance | Percent Hydrolysis 1 hr. [1] [%] | Percent Hydrolysis 18 hrs. [1] [%] | % Digested in Rats [2] [%] | absorption / hydrolysis and metabolism in rat feeding studies [3]
Polyglycerol polyoleate [Example VII] | 4.2 | 7.8 | 70 | –
Polyglycerol polyoleate [Example XI] | 0.5 | 5.3 | 50 | –
Propoxylated polyglycerol polyoleate [Example IV] | 2.7 | 2.3 | 26 | –
Propoxylated polyglycerol polytallowate [Example V] | 2.4 | 3.8 | 18 | –
decaglycerol dodecaoleate | – | – | – | substantially absorbed
polyglycerol polyoleate [Example III] | 2.7 | 4.4 | 52 | –
